Measured values reported in patent US10548906B2, “Methods of promoting hepatic regeneration” (Intercept Pharmaceuticals, Inc., priority 2015, dated 2020).

Key:
Fxr = assay: qRT-PCR of proliferation-, Fxr- and bile acid homeostasis-related genes in liver and ileum of rBDL rats (Example 6); assay type: in vivo, rat
Experimental: Transcriptional analysis was performed [Olthof 2015]. Liver samples were homogenized with a MagNA Lyser and total RNA was extracted with the High Pure RNA Tissue Kit (both from Roche Applied Sciences, Penzberg, Germany). One μg of RNA was reverse transcribed to cDNA using the SensiFAST cDNA Synthesis Kit (Bioline, London, UK) according to manufacturer's instructions. Quantitative reverse transcriptase polymerase chain reaction was performed on a LightCycler 480 (Roche, Basel, Switzerland) using SensiFAST SYBR No-ROX mix (Bioline). Fluorescence data was processed and analyzed and normalized to hypoxanthine-guanine phosphoribosyltransferase (Hprt) for ileum samples, and the geometric mean of ubiquitin C (Ubc) and beta-2-microglobulin (B2m) for liver samples. […] Primers were designed using NCBI Primer Blast (http://www.ncbi.nlm.nih.gov/tools/primer-blast/) to span an intron or exon-exon junction and prevent amplification of residual genomic DNA (Table 2). Melting curve analysis and agarose gel electrophoresis were used to validate primer specificity.

Wistar rats = assay: Liver regrowth after 70% partial hepatectomy in post-cholestatic rats (Example 6); assay type: in vivo
Description: Seven days after BDL or sham operation, all rats were subjected to 70% PHx [DeGraaf 2011]. In all rBDL rats, intestinal bile flow was restored directly prior to PHx by removing the closed cannula tip and inserting the cannula into the duodenum. Animals in all treatment groups were put on regular chow after PHx. OCA treatment was continued after PHx until sacrifice. As depicted in Scheme 1, the study consisted of five experimental groups (n=4-6 animals per group per time point): control (sham), steatosis (MCD), cholestasis (rBDL), combined steatosis and cholestasis (rBDL+MCD), and cholestasis+OCA (rBDL+OCA).
At baseline (i.e., directly before PHx) and one to five days after PHx, animals were euthanized under isoflurane anesthesia by exsanguination. Blood samples were collected from the caval vein in heparin-anticoagulated vacutainers (BD, Franklin Lakes, N.J.) and centrifuged for 10 min (3000×g, 4° C.). In rBDL animals sacrificed at baseline, bile was aspirated with a syringe from the dilated extrahepatic bile duct, weighed, and stored at −80° C. The liver and ileum were excised, weighed, loafed, and either fixed in a 10% (vol/vol) neutralized formalin solution (J. T. Baker, Center Valley, Pa.), snap-frozen in liquid nitrogen and stored at −80° C., or collected in RNAlater (Qiagen, Venlo, the Netherlands) and stored at −20° C. Liver regrowth was calculated from the regenerated liver mass, and was expressed as percentage of total liver mass prior to PHx. The projected remnant liver mass was calculated using the weight of the resected liver segments, which represent 70% of the total liver mass. Dry liver weights were measured to correct for hepatic water content [Kloek 2010a].
After formalin fixation, liver specimens were dehydrated, paraffin-embedded, and stained with hematoxylin and eosin (H&E), the collagen type I and III stain picrosirius red, or the proliferation marker Ki67 [Marsman 2013]. Semi-quantitative analysis of H&E- and picrosirius red-stained liver histology was performed by an experienced hepatopathologist (JV) blinded to the experimental groups using a scoring system detailed in Table 1. Ki67-positive hepatocyte nuclei were manually counted by two observers (RFG and PBO) in four randomly-selected microscopic fields at 200× magnification.

[1] = prior to PHx, vs untreated rBDL

CC[C@H]1[C@@H](O)[C@@H]2[C@H](CC[C@]3(C)[C@@H]([C@H](C)CCC(=O)O)CC[C@@H]23)[C@@]2(C)CC[C@@H](O)C[C@@H]12 [Compound 1, 3α,7α-dihydroxy-6α-ethyl-5β-cholanic acid]
hepatic Bsep expression, upregulation (Fxr; baseline): ~8 fold
hepatic Mrp4 expression (Fxr; baseline): upregulated
hepatic Ntcp expression (Fxr; baseline): mildly upregulated
hepatic Ostβ expression (Fxr; baseline): upregulated
hepatocyte Cyp7a1 mRNA level (Fxr; baseline): did not alter
hepatocyte Shp mRNA level (Fxr; baseline): did not alter
hepatic Mrp3 expression (Fxr; baseline, vs untreated rBDL): more robust induction
liver Fxr mRNA (Fxr; day 1 post-PHx): slight decrease
hepatic Foxm1 expression (Fxr; during liver regeneration after PHx): did not change
hepatic Shp transcript levels relative to untreated rBDL and control rats (Fxr; first two days after PHx): high transcript levels
hepatic Fgfr4 transcript level (Fxr; prior to / on the day of PHx, listed as OCA): markedly downregulated
hepatic Stat3 expression (Fxr; prior to PHx): considerably upregulated
ileal Fxr expression (Fxr; prior to PHx): minor downregulation
ileal Shp expression (Fxr; prior to PHx): marked upregulation
ileal Fgf15 transcription, upregulation (Fxr; prior to PHx, rBDL rats): ~20 fold
hepatic expression of Foxm1 (Fxr; [1]): comparable
hepatic expression of Fxr (Fxr; [1]): comparable
hepatic expression of Ccnd1 (CyclinD1) (Fxr; prior to PHx, vs untreated rBDL or non-cholestatic animals): more pronounced
hepatic Fgfr4 expression (Fxr; regrowth phase after PHx): remained low
dry weight of the remnant liver (Wistar rats; at the time of PHx, vs other two groups): higher
number of Ki67+ hepatocytes (Wistar rats; day one after PHx): highest
mortality (Wistar rats; regeneration phase): no mortality
liver regrowth after 70% PHx (Wistar rats; vs untreated rBDL and control rats): stalled
